From patent US9486427B2, “Administration of aerosolised iloprost” (VECTURA GMBH, priority 2012, dated 2016)
Where two headings read alike, the source gives them in different places.

Legend:
[1] = tested on: patients with pulmonary arterial hypertension; experiment: Clinical pilot study of safety and tolerability of rapidly inhaled nebulised iloprost (Example 3); format: in vivo, human
Experimental: A clinical pilot study to evaluate the safety and tolerability of nebulised iloprost administered by inhalation according to the invention was conducted with 4 patients. Eligible were male and female patients with pulmonary arterial hypertension in the age from 18 to 70 years having a mean pulmonary arterial blood pressure (PAP) higher than 25 mm Hg, a pulmonary vascular resistance (PVR) higher than 240 dyn*s*cm^−5, a central venous pressure (CVP) higher than 3 mm Hg, and a pulmonary capillary wedge pressure (PCWP) lower than 12 mm Hg. Excluded were patients with a contraindication for cardiac catheterisation (such as coagulopathy, bleeding disorder, acute infection, severe cardiac dysrhythmia), pregnancy, systemic systolic blood pressure below 110 mm Hg, highly impaired ventricular function with cardiac index below 1.8 L/min*m^2, and known lack of pulmonary vascular reactivity. Patients were monitored by ECG, pulse oxymetry, and non-invasive blood pressure measurement. An intracardiac catheter was introduced into the distal pulmonary artery to measure PAP, CVP, PCWP, and cardiac output. Also measured were the heart rate, systemic arterial pressure (SAP), systemic vascular resistance (SVR), central arterial and venous blood gases. After the initial determination of all parameters the reactivity of the pulmonary vasculature to oxygen (2 to 4 L/min) and nitric oxide (20 ppm) was tested. Subsequently, patients inhaled a single dose of 2.5 μg of nebulised iloprost in two consecutive breaths, using the same inhalation system and iloprost composition as described in Example 1. Haemodynamics parameters and clinical condition of the patients were assessed before and up to 30 minutes after inhalation. In the absence of adverse effects, a second inhalation maneuver with 4 consecutive breaths corresponding to a dose 5 μg iloprost was performed, again followed by an observation period of at least 30 minutes.

[2] = cited from earlier work
[3] = 2.8 μg in 2 minutes, ultrasonic nebuliser; cited from earlier work
[4] = tested on: patients suffering from pulmonary hypertension (PH); experiment: Iloprost inhalation in six further patients (Example 4); format: in vivo, human; details: rapid inhalation as in Example 3
Experimental: Six further patients suffering from pulmonary hypertension (PH) were treated with iloprost inhalation as in Example 3.

[5] = 2.5 μg and 5 μg rapid inhalation

Q: For `CC#CCC(C)[C@H](O)/C=C/[C@@H]1[C@H]2C/C(=C/CCCC(=O)O)C[C@H]2C[C@H]1O` (stereo partly drawn) [Iloprost, 5-{(E)-(1S,5S,6R,7R)-7-hydroxy-6[(E)-(3S,4RS)-3-hydroxy-4-methyl-1-octen-6-inyl]-bi-cyclo[3.3.0]octan-3-ylidene}pentanoic acid], which “systemic side effects (SAP and SVR changes) versus slow inhalation of iloprost” value [1, 5] is on record?
A: similar

Q: And the “therapeutic pulmonary vascular effects (PAP and PVR changes) versus slow inhalation of iloprost” value [1, 5]?
A: comparable to those observed after conventional iloprost treatment

Q: And the “tolerability of the treatment” value ([1]; 2.5 μg in two breaths, then 5 μg in 4 breaths, inhaled, 4 patients)?
A: all patients tolerated the treatment well

Q: And the solubility ([2]; aqueous buffer pH 9)?
A: sparingly soluble

Q: What about the aqueous solubility [2] of the same compound?
A: rather poor

Q: What about the solubility ([2]; distilled water and aqueous buffer at pH 3 and pH 5) of the same compound?
A: very slightly soluble

Q: What about the solubility ([2]; methanol, ethanol, ethyl acetate, acetone and aqueous buffer at pH 7) of the same compound?
A: soluble

Q: And the “systemic effects of rapid inhalation (drop in blood pressure, decrease in systemic vascular resistance, flush, jaw pain)” value [3]?
A: adverse systemic effects

Q: What about the adverse effects [4] of the same compound?
A: no adverse effects were observed other than the SAP and SVR changes which were mild

Q: And the pulmonary vascular effects ([4]; PAH, iPAH, portopulmonary, CTEPH)?
A: very comparable to those found in Example 3
